# Results as given in patent publication US10093973B2, “Polymerase compositions and methods” (LIFE TECHNOLOGIES CORPORATION, priority 2009, dated 2018).
# Tested on: 5′-[32P]-labeled templates or 5′-TAMRA-labeled templates
# Assay: Photostability assay (primer extension after 405 nm excitation radiation)
# Format: biochemical
# Settings: after 30 seconds of exposure at 50 W/cm2, 405 nm
# From the text: The photostability of an exemplary reference polymerase comprising a His-tagged version of Phi-29 polymerase (“HP1; see, e.g., U.S. Provisional Application No. 61/184,770, filed Jun. 5, 2009 for disclosure of HP1 sequence and purification) comprising the amino acid sequence of SEQ ID NO: 20, and an exemplary modified polymerase comprising the amino acid sequence of SEQ ID NO: 19 and further comprising the amino acid substitution D175A were characterized by measuring the amount of primer extension observed in each sample prior to and following exposure to excitation radiation at 405 nm Reactions (100 μL) containing 50 mM Tris, pH 7.5, 50 mM NaCl, 1 mM DTT, 2 mM MnCl2, 0.3% BSA, 10-200 nM polymerase and 100 nM nanoparticles (or premade polymerase-nanoparticle conjugates; see, e.g., U.S. Provisional Application No. 61/184,770 filed Jun. 5, 2009), and 100 nM 5′-[^32P]-labeled templates or 5′-TAMRA-labeled templates were prepared with and without the Oxygen Scavenging System (OSS). […] Polymerase activity was quantified as the % of extended primer (as compared to the total starting amount of primer), as measured by densitometric analysis. Phototoxicity is quantified by measuring the percent decrease in polymerase activity that occurs when samples are illuminated compared to non-illuminated samples. The photostability is quantified by subtracting the observed photosensitivity from 100.
substance,measurement,value
"HP1: Phi-29 polymerase lacking exonuclease activity with N-terminal His-tag, linker, D12A and D66A mutations [reference compound]",% activity retained,less than 40%
